Source: ChEMBL document CHEMBL4219121, “Synthesis, antitumor activity and DNA binding features of benzothiazolyl and benzimidazolyl substituted isoindolines” (Bioorg Med Chem, 2018)
The source made the active and inactive calls. The rule behind the calls is not given here.

How the values were obtained:
[1] = system: MCF7; assay: Antiproliferative activity against human MCF7 cells after 72 hrs by MTT assay; format: functional, cell-based; details: MCF7, 72 h
[2] = system: SW-620; assay: Antiproliferative activity against human SW620 cells after 72 hrs by MTT assay; format: functional, cell-based; details: SW-620, 72 h
[3] = system: HepG2; assay: Antiproliferative activity against human HepG2 cells after 72 hrs by MTT assay; format: functional, cell-based; details: HepG2, 72 h
[4] = system: HeLa; assay: Antiproliferative activity against human HeLa cells after 72 hrs by MTT assay; format: functional, cell-based
[5] = system: BJ; assay: Antiproliferative activity against human BJ cells after 72 hrs by MTT assay; format: cell-based
[6] = system: Calf thymus DNA; assay: Binding affinity to calf thymus DNA assessed as change in melting temperature at drug/DNA ratio of 0.25 by spectrophotmetric method; format: nucleic-acid assay; details: Bos taurus
[7] = system: Calf thymus DNA; assay: Binding affinity to calf thymus DNA assessed as change in melting temperature at drug/DNA ratio of 0.5 by spectrophotmetric method; format: nucleic-acid assay; details: Bos taurus
[8] = system: Calf thymus DNA; assay: Binding affinity to calf thymus DNA at 1 to 50 uM by circular dichroism spectral analysis; format: nucleic-acid assay; details: Bos taurus
[9] = target: T1, DNA topoisomerase 1 (Homo sapiens) (UniProt P11387); assay: Inhibition of human topoisomerase1-mediated DNA relaxation assessed as DNA intercalation at 5 to 50 uM using supercoiled pUC19 as substrate pretreated with substrate for 45 mins followed by enzyme addition measured by agarose gel electrophoresis
T1 sequence (whole entry): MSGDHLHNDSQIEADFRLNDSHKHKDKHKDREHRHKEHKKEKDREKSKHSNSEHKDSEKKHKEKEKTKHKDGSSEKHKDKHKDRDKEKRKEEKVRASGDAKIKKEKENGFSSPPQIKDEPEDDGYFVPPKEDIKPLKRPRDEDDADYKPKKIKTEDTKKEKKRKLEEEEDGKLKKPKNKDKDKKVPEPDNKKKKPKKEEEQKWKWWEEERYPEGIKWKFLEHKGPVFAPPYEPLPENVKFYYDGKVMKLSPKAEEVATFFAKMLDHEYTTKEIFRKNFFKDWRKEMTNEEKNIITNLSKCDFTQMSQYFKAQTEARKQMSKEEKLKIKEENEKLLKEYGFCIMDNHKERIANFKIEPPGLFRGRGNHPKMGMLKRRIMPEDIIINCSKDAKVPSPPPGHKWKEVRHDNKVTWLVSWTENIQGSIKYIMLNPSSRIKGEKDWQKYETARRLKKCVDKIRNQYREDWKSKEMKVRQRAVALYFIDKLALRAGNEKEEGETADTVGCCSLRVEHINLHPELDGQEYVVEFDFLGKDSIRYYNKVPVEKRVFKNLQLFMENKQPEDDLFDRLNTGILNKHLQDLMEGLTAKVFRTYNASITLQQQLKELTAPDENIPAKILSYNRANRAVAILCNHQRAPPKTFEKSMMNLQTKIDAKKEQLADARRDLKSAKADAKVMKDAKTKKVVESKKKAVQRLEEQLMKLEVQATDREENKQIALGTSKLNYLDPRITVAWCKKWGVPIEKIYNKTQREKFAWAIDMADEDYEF

[10] = target: T1, DNA topoisomerase 1 (Homo sapiens); assay: Poison activity at human topoisomerase1 assessed as accumulation of nicked DNA at 20 uM using supercoiled pUC19 as substrate pretreated with substrate for 45 mins followed by enzyme addition measured by agarose gel electrophoresis relative to control
[11] = Drug uptake in human Caki2 cells at 50 uM measured after 5 hrs by Phalloidin CruzFluorTM 488 conjugate/propidium iodide staining based fluorescence microscopic analysis; format: ADME, cell-based; details: caki-2, 5 h
[12] = Drug uptake in nucleus of human Caki2 cells at 50 uM measured after 5 hrs by Phalloidin CruzFluorTM 488 conjugate/propidium iodide staining based fluorescence microscopic analysis; format: ADME, subcellular; details: caki-2, 5 h
[13] = Drug uptake in nucleolus of human Caki2 cells at 50 uM measured after 5 hrs by Phalloidin CruzFluorTM 488 conjugate/propidium iodide staining based fluorescence microscopic analysis; format: ADME, subcellular; details: caki-2, 5 h
[14] = system: CAKI-2; assay: Cytotoxicity against human Caki2 cells after 72 hrs by MTT assay; format: functional, cell-based; details: CAKI-2, 72 h
[15] = system: SW-620; assay: Induction of apoptosis in human SW620 cells assessed as phenotypic changes after 24 to 48 hrs by microscopic analysis; format: functional, cell-based
[16] = system: HeLa; assay: Induction of apoptosis in human HeLa cells assessed as phenotypic changes after 24 to 48 hrs by microscopic analysis; format: functional, cell-based
[17] = system: HeLa; assay: Cell cycle arrest in human HeLa cells assessed as accumulation at subG1 phase at 0.5 to 1 uM after 24 hrs by propidium iodide staining based flow cytometric method; format: functional
[18] = system: SW-620; assay: Cell cycle arrest in human SW620 cells assessed as accumulation at subG1 phase at 0.5 to 1 uM after 24 hrs by propidium iodide staining based flow cytometric method; format: functional
[19] = system: HeLa; assay: Cell cycle arrest in human HeLa cells assessed as accumulation at subG1 phase at 1 uM after 48 hrs by propidium iodide staining based flow cytometric method (reference value: 17 to 20.1 %); format: functional
[20] = system: HeLa; assay: Cell cycle arrest in human HeLa cells assessed as accumulation at subG1 phase at 0.5 uM after 48 hrs by propidium iodide staining based flow cytometric method (reference value: 17 to 20.1 %); format: functional
[21] = system: SW-620; assay: Cell cycle arrest in human SW620 cells assessed as accumulation at subG1 phase at 1 uM after 48 hrs by propidium iodide staining based flow cytometric method (reference value: 4.1 to 11.3 %); format: functional
[22] = system: SW-620; assay: Cell cycle arrest in human SW620 cells assessed as accumulation at subG1 phase at 0.5 uM after 48 hrs by propidium iodide staining based flow cytometric method (reference value: 4.1 to 11.3 %); format: functional
[23] = system: SW-620; assay: Induction of apoptosis in human SW620 cells assessed as activation of caspase-2 at 0.5 uM measured after 48 hrs by colorimetric assay; format: functional, cell-based
[24] = system: SW-620; assay: Induction of apoptosis in human SW620 cells assessed as activation of caspase-6 at 0.5 uM measured after 48 hrs by colorimetric assay; format: functional, cell-based
[25] = system: Calf thymus DNA; assay: Binding affinity to calf thymus DNA assessed as change in melting temperature at drug/DNA ratio of 1 by spectrophotmetric method; format: nucleic-acid assay; details: Bos taurus
[26] = target: DNA topoisomerase 2-alpha (Homo sapiens) (UniProt P11388); assay: Poison activity at human topoisomerase2 assessed as accumulation of linear DNA at 10 to 50 uM using supercoiled pUC19 as substrate pretreated with substrate for 45 mins followed by […] measured by ethidium bromide staining based agarose gel electrophoresis
Chain of DNA topoisomerase 2-alpha (Homo sapiens) (P11388 whole entry): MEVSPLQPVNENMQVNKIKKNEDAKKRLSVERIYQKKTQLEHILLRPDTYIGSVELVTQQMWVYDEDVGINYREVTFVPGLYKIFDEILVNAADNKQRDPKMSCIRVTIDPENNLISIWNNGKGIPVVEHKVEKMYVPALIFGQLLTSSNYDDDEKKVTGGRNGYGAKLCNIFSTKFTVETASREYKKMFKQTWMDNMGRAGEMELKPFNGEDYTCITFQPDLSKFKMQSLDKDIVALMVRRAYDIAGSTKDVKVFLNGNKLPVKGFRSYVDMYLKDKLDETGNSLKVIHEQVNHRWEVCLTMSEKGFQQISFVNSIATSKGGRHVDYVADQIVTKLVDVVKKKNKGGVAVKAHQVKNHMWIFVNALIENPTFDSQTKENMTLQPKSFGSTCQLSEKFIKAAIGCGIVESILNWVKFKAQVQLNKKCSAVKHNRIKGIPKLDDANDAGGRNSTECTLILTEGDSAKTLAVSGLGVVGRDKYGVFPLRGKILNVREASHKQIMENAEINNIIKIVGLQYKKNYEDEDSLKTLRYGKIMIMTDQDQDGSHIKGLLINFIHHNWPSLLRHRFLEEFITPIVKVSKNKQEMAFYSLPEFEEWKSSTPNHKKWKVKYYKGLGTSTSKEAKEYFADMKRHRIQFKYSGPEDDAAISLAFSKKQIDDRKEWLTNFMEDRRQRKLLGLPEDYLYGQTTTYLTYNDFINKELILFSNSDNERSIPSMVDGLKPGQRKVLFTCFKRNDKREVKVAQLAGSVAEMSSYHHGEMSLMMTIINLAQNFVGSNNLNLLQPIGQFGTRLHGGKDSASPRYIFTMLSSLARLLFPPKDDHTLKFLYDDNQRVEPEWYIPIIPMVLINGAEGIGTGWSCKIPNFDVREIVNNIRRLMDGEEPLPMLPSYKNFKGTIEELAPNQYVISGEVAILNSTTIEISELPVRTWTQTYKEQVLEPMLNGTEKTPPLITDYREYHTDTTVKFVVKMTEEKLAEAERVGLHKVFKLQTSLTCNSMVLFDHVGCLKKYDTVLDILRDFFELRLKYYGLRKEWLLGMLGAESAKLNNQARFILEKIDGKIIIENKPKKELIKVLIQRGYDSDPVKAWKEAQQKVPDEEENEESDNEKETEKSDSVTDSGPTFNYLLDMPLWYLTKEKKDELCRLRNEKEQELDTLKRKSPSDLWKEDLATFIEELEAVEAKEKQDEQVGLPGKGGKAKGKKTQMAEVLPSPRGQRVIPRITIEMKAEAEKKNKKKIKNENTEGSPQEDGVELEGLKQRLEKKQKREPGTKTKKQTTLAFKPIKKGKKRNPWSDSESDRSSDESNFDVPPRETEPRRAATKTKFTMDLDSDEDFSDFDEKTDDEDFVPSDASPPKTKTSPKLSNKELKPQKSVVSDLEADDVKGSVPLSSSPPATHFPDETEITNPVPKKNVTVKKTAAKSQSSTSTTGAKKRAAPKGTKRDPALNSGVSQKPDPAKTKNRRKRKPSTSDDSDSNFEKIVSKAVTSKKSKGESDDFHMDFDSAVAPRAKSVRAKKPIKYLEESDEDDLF

[27] = Drug uptake in cytoplasm of human Caki2 cells at 50 uM measured after 5 hrs by Phalloidin CruzFluorTM 488 conjugate/propidium iodide staining based fluorescence microscopic analysis; format: ADME, subcellular; details: caki-2, 5 h
[28] = system: HeLa; assay: Induction of apoptosis in human HeLa cells assessed as activation of caspase-8 at 0.5 uM after 24 to 48 hrs by colorimetric assay; format: functional, cell-based
[29] = system: SW-620; assay: Induction of apoptosis in human SW620 cells assessed as activation of caspase-8 at 0.5 uM after 24 to 48 hrs by colorimetric assay; format: functional, cell-based

Row | Compound | IC50 [1] | IC50 [2] | IC50 [3] | IC50 [4] | IC50 [5] | ΔTm [6] | ΔTm [7] | Activity [8] | Drug uptake [11] | Drug uptake [12] | IC50 [14] | also measured
1 | Cl.Cl.c1ccc2c(c1)CN(c1nc3ccc(C4=NCCN4)cc3[nH]1)/C2=N/c1nc2ccc(C3=NCCN3)cc2[nH]1 | 23.4 µM | 35 µM | 9.01 µM | 15.4 µM | 22.9 µM | 9.3 °C | 18.5 °C | Active | Active | Active | 80.2 µM | inhibition (qualitative) [9]: Active; fold change (FC) [10]: 1.8; Drug uptake [13]: Active
2 | CC(C)NC(=N)c1ccc2nc(N3Cc4ccccc4C3=O)sc2c1.Cl | 0.36 µM | 0.15 µM | 0.34 µM | 0.32 µM | 0.05 µM | 1.2 °C | 3.2 °C | Active | Active | Active | 0.75 µM | Activity [15]: Active; Activity [16]: Active; Activity [17]: inactive; Activity [18]: inactive; Activity [19]: 38.1%; Activity [20]: 45.7%; Activity [21]: 59.9%; Activity [22]: 33.9%; Activity [23]: Active; Activity [24]: Active; ΔTm [25]: 4.4 °C; Activity [26]: Active; Drug uptake [27]: Active; Activity [28]: inactive; Activity [29]: inactive
